{"source": "paper PMC8074287", "about": "“Analgesic and Anticancer Activity of Benzoxazole Clubbed 2-Pyrrolidinones as Novel Inhibitors of Monoacylglycerol Lipase” (Molecules, 2021)", "key": {"hMAGL": {"biological_target": "T1, hMAGL (Homo sapiens, UniProt Q99685)", "T1 sequence (Q99685 1-303)": "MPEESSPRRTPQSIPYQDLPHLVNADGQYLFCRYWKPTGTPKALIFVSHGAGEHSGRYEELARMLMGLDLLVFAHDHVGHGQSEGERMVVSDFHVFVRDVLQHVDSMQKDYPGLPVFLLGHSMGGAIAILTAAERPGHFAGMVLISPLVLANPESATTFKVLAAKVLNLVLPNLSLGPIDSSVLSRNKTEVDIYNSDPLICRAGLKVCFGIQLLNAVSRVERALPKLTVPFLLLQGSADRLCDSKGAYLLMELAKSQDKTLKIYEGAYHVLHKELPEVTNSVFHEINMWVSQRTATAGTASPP", "assay": "Human MAGL inhibition assay (Cayman's assay kit)"}, "ACHN": {"system": "ACHN", "assay": "NCI60 single-dose SRB assay", "format": "cell-based, human", "conditions": "Renal Cancer, 10 μM", "protocol": "Compounds 19 and 20 were supplied to National Cancer Institute (USA), for sulforhodamine B (SRB) assay and anticancer screening. Single-dose (10 µM) assay results for compounds 19 and 20 were provided as a mean of percent growth (% G) and growth inhibition (% GI) against 60 cell lines of nine types of cancers and are tabulated in Table 4. […] Both the compounds 19 and 20 were also found active on UO-31 renal cancer cell line with % GI of 21.18 and 29.95, respectively.\nCompounds 19 and 20 were supplied to National Cancer Institute (Bethesda, Maryland, USA), for in vitro sulforhodamine B (SRB) assay, anticancer screening on 60 cell lines of cancers of leukemia, melanoma, and tumors of the kidney, brain, breast, lung, colon, ovary, and prostate, as per their standard protocol. One dose anticancer results (NCI, USA) of compounds 19 and 20 are provided in the Supplementary Materials."}, "[1]": {"system": "formalin-induced nociception", "assay": "Formalin-induced analgesic (nociception) test", "format": "in vivo, Male Wistar rats", "from_the_text": "The formalin-induced analgesic test is an extensively acknowledged animal nociception model. In order to evaluate both central and peripheral effects of the compound (20), formalin-induced nociception model was selected for analgesic activity. The formalin induced behavioral response comprises two typical phases, stage I and II. Stage I persists up to five minutes after formalin injection and is characterized by acute pain with vigorous licking and biting of the injected site. Stage I consists the action formalin on afferent C-fiber nociceptors. While Stage II starts 10–30 min after formalin injection and persists till 60 min, characterized by periodic licking and biting of the injected site. Stage II imitates the action of central sensitization of the spinal dorsal horn neurons.\nFigure 5 Formalin-induced analgesic test; a dose of the test compound 20 (5, 10, 30, and 50 mg/kg, p.o, suspended in 0.5% CMC) was administered 4 h before formalin injection (50 µL, 2.5%). Reference drug, gabapentin (100 mg/kg, i.p, dissolved in 0.9% normal saline) was injected 30 min before formalin injection. Total paw licking and biting duration, Stage I (white bar, 0–5 min) and stage II (black bar, 10–30 min) was recorded as a measure of pain behavior. Data is represented as mean ± SEM from a group of 10 animals. * p < 0.05, ** p < 0.01, p > 0.05 (NS, nonsignificant) vs. control (vehicle). GBP: Gabapentin; D5, D10, D30, andD50 are the dose concentrations of test compound 20.\nMale Wistar rats (180–200 g) were obtained with the permission of IAEC (proposal number 1048) from Jamia Hamdard, New Delhi, India. The results of test compound 20 and reference drug, Gabapentin (GBP), were statistically compared with the control group."}}, "note": "Entries after “also recorded” stand apart in the source; their conditions may differ.", "data": [{"smiles": "O=C1CC(c2nc3ccccc3o2)CN1c1ccc([N+](=O)[O-])cc1", "note": "(centres unmarked) [Compound 19, 4-(Benzo[d]oxazol-2-yl)-1-(4-nitrophenyl)pyrrolidin-2-one]", "values": [{"measurement": "IC50", "setting": "hMAGL", "result": "8.4 ± 1.9", "unit": "nM"}, {"measurement": "% G", "setting": "ACHN", "result": 91.70, "unit": "%"}, {"measurement": "% GI", "setting": "ACHN", "result": 8.3, "unit": "%"}]}, {"smiles": "NS(=O)(=O)c1ccc(N2CC(c3nc4ccccc4o3)CC2=O)cc1", "note": "(centres unmarked) [Compound 20, 4-(4-(Benzo[d]oxazol-2-yl)-2-oxopyrrolidin-1-yl)benzenesulfonamide]", "values": [{"measurement": "IC50", "setting": "hMAGL", "result": "7.6 ± 0.8", "unit": "nM"}, {"measurement": "pain response in acute (Stage I) and late (Stage II) phases", "setting": "[1]; 5, 10, 30, and 50 mg/kg p.o., 4 h prior to formalin injection", "result": "reduced the pain response in acute and late stages in a dose-dependent manner; also recorded: reduced the pain response significantly both in acute (Stage I) and late (Stage II) phases, in a dose-dependent manner; also recorded: reduced the pain response significantly both in acute (stage I) and late (stage II) phases in a dose-dependent manner"}, {"measurement": "reduction in pain response compared with positive control GBP", "setting": "[1]; at 30 mg/kg p.o., GBP 100 mg/kg i.p.", "result": "better potency than the positive control gabapentin (GBP)"}, {"measurement": "% G", "setting": "ACHN", "result": 89.48, "unit": "%"}, {"measurement": "% GI", "setting": "ACHN", "result": 10.52, "unit": "%"}]}]}
